# How the values were obtained:
# L-type Ca2+ channel = target: T1, L-type Ca2+ channel (Rattus norvegicus, UniProt P22002); assay: Ca2+ channel study, whole cell patch clamp in single VSMC; assay type: cell-based; details: IBMX applied after FMOC-PHF
# T1 construct: single VSMC isolated form rat tail artery by using the whole cell version of the patch clamp technique; endogenous in cells; host or cells: freshly isolated vascular smooth muscle cells of rat tail artery
# Method: Ca^2+ channel activity was determined in single VSMC isolated form rat tail artery by using the whole cell version of the patch clamp technique (Hamill et al., 1981). Whole cell Ca^2+ current measurements were carried out by using an Axopatch-1B patch clamp amplifier (Axon Instruments). Patch micropipettes were pulled from borosilicate thin wall glass capillary tubes (OD 1.2 mm, ID 0.9 mm, FHS, Brunswick, Maine, USA) with a two stage micropipette puller (Narishige, PP83, Japan). The micropipettes were fire polished using a microforge (Leitz, Wetzlar, Germany). The tip diameter was approximately 1 μm with a resistance of 2-8 Mega Ohms. The cell attached to the bottom of a 3 cm Petri dish and was bathed in the medium containing 110 mM Tris, 5 mM CsCl, 20 mM HEPES, 30 mM glucose, 20 mM BaCl2, and 0.5 μM TTX. The polished pipette filled with a solution containing 75 mM Cs2 -aspartate, 10 mM EGTA, 2 mM ATP, 5 mM MgCl2, 5 mM K-pyruvate, 5 mM K-succinate, 25 mM glucose, 15 mM HEPES, 5 mM creatine phosphate-Na2, and 50 units/ml creatine kinase was placed against the cell membrane using a Narishige hydraulic micromanipulator. Gentle suction was applied via a tubing attached to the pipette holder. […] The currents were monitored using a digital oscilloscope (Nicolet Instrument Co., Madison, Wis., U.S.A.) and filtered at 3 KHz with a low pass filter (Axon Instruments, Foster City, Calif., U.S.A.). […]
# rat tail artery = assay: Blood vessel tension measurement, norepinephrine-induced tension in helical strips; assay type: cell-based; details: 40 mins incubation before second NE doses
# Method: The method was essentially similar to the one described by Pang, et al. (1980). Sprague-Dawley rats of either sex were anesthetized with pentobarbital (50 mg/kg) and the tail artery or aorta were isolated and removed and then placed in KHS buffer (115 mM NaCl, 5 mM KCl, 2.1 mM CaCl2, 1.2 mM MgSO4, 1.2 mM NaH2 PO4, 25 mM NaHCO3, and 11 mM glucose) oxygenated with 95% O2, 5% CO2. The vessels were cut helically and strips of approximately 1.5 cm were secured in a Sawyer-Bartlestone chamber containing KHS. The force development of the helical strips was measured with a Grass FT 0.03 force displacement transducer and recorded on a Grass Model 79D polygraph. Isolated tail artery helical strips were equilibrated for 1 hour prior to addition of any vasoconstricting agents. The strips were preloaded with a resting tension of 0.7 g and incubated at 37° C. (Pang et al., 1985). In all cases, the responsiveness of strips was first tested by adding 60 mM KCl and only responsive tissue was used in experiments. There were two series of experiments.
# Two consecutive dose responses to NE in tension development with 1 hour interval were compared. The tissue was washed out after adding first accumulated doses of NE and incubated in normal KHS buffer for 20 mins. The control solvent or testing substances (PHF or LP compounds) were then applied and incubated for another 40 mins. […]
# Na+ K+ ATPase = Na+ K+ ATPase activity as ouabain-sensitive 86Rb uptake in rat tail artery; assay type: cell-based
# Method: Na^+ K^+ ATPase activity was measured as the ouabain-sensitive ^86 Rb uptake in rat tail artery using the method of Deth et al. Briefly, male Sprague-Dawley rats weighing 300 to 400 g were sacrificed by pentobarbital overdose, and the tail arteries removed and cut into strips. The strips were rinsed in ice-cold Krebs solution (composition: NaCl, 117 mM; KCl, 5 mM; NaHCO3, 27 mM, NaH2 PO4, 1 mM, MgSO4, 1.2 mM, CaCl2, 1.25 mM, glucose 11.0 mM) and incubated in oxygenated (95% O2, 5% CO2) Krebs buffer at 37° C. for 2 hours. For the final 30 minutes, Krebs solution with no KCl and 122 mM NaCl was used to sodium-load the tissues. Following this incubation, the strips were transferred to tubes containing Krebs buffer and 1 μCi of ^86 Rb, giving a final […] concentration of 5 mM. Various incubation media consisting of the above-described incubation solution plus 30% SHR plasma (Rb concentration kept constant in all cases) plus 1 mM ouabain and incubation plus 30% plasma plus 1 mM ouabain. Strips were incubated in the respective solutions for 18 minutes, then rinsed in four changes of ice-cold Krebs solution, blotted, weighed and counted in a gamma counter. The effect of the various incubations on ^86 Rb uptake was analyzed by ANOVA using the Student-Neuman-Keuuls test for post-hoc comparisons. All results are expressed as mean±SD.
# SD rats = assay: Blood pressure bioassay, bolus injection into anesthetized normotensive SD rats; assay type: in vivo; details: normotensive rat, as in Example 1
# Method: SD rats were anesthetized using Na pentobarbital, (50 mg/kg, i.p.) and catheters were inserted in the jugular vein for injection of plasma and drugs and in the carotid artery for measurement of b.p.
# The chloroform methanol extract of SHR plasma was redissolved in saline and administered by bolus injection.
# [1] = system: CaM (calmodulin)-Dependent PDE; assay: Activation of CaM-dependent PDE (cGMP-PDE activity); assay type: biochemical
# Method: The measurement of cGMP-PDE activity is based on the conversion of [^3 H]cGMP into [^3 H]GMP and its subsequent hydrolysis by snake venom into [^3 H]Guanosine (Wallace, et al., 1983; Wells, et al., 1975). The testing substance was added to a mixture containing 60 mM TES, 3 mM MgCl2, 0.8 mg/ml BSA, 25 μM EGTA, 50 uM CaCl2, 1 mM DTT, 0.5 μM cGMP and [^3 H]-cGMP (10-15×10^3 cpm) at a final pH of 7.5 for a total volume of 200 μl. The reaction was started by the addition of a fixed quantity of CaM-deficient PDE (Sigma Chemical Co., St. Louis, Mo.). Incubation carried out for 15 mins at 30° C., was terminated by boiling for 5 mins. The second reaction was initiated by the addition of 20 μl (10 mg/ml) of snake venom (Crotalus atrox). After 10 mins., the incubation was stopped with 700 μl of a second termination medium containing 0.1 mM guanosine. The total incubation mixture was then applied onto a column of QAE-Sephadex A-25 (formate form) to separate labeled nucleotides from the labeled nucleosides formed. The resin was eluted with 4 ml of 20 mM ammonium formate (pH 6.5), and the radioactivity of the eluate containing [^3 H]guanosine was determined in a liquid scintillation counter. A standard curve of PDE stimulation by CaM was obtained by the addition of different concentrations of purified bovine heart CaM (Sigma) (0.1-200 ng/tube). […]
# [2] = system: vascular smooth muscle cells isolated from rat tail artery; assay: Intracellular calcium determination (fura-2); assay type: cell-based; details: 45 mins incubation before KCl; 30 mM KCl for pure PHF, 15 mM KCl for FMOC-PHF
# Method: All studies were performed in vascular smooth muscle cells isolated from Sprague Dawley (SD) rat tail artery as described in Wang, et al. (Wang, et al. 1989) with modification. Male SD rats (100-200 g body weight) were anaesthetized with sodium pentobarbital (65 mg/kg body weight intraperitoneally) and the tail artery dissected out and immersed in cold Ca and Mg free Hanks' balanced salt solution (HBSS, Gibco). The blood was washed off from the artery and the connective tissue was then removed. Using a dissecting microscope inside a laminar flow hood, the artery was cut into pieces of about 1.5 cm and placed in 4° C. Ca free HBSS for 30 minutes. […]
# Primary cultured vascular smooth muscle cells were incubated for 45 minutes in DMEM containing 5 μM fura-2 acetoxymethyl ester (Molecular Probes, INC.) at room temperature. […] After about 5 min, the coverslip with attached cells was placed in a Sykes-Moore chamber of 1-ml volume on the stage of an inverted microscope, and fluorescence measurements were made with a Fluoroplex III sepctrofluorometer (Tracor Northern). […] R is the ratio of fluorescence in the sample excited at […] which represents intracellular free calcium concentration. […]
# The monolayer cells in 1 mM Ca^2+ 5K buffer were challenged by testing substances and the change of R was recorded for a certain period of time. […]
# T1 sequence (P22002 whole entry): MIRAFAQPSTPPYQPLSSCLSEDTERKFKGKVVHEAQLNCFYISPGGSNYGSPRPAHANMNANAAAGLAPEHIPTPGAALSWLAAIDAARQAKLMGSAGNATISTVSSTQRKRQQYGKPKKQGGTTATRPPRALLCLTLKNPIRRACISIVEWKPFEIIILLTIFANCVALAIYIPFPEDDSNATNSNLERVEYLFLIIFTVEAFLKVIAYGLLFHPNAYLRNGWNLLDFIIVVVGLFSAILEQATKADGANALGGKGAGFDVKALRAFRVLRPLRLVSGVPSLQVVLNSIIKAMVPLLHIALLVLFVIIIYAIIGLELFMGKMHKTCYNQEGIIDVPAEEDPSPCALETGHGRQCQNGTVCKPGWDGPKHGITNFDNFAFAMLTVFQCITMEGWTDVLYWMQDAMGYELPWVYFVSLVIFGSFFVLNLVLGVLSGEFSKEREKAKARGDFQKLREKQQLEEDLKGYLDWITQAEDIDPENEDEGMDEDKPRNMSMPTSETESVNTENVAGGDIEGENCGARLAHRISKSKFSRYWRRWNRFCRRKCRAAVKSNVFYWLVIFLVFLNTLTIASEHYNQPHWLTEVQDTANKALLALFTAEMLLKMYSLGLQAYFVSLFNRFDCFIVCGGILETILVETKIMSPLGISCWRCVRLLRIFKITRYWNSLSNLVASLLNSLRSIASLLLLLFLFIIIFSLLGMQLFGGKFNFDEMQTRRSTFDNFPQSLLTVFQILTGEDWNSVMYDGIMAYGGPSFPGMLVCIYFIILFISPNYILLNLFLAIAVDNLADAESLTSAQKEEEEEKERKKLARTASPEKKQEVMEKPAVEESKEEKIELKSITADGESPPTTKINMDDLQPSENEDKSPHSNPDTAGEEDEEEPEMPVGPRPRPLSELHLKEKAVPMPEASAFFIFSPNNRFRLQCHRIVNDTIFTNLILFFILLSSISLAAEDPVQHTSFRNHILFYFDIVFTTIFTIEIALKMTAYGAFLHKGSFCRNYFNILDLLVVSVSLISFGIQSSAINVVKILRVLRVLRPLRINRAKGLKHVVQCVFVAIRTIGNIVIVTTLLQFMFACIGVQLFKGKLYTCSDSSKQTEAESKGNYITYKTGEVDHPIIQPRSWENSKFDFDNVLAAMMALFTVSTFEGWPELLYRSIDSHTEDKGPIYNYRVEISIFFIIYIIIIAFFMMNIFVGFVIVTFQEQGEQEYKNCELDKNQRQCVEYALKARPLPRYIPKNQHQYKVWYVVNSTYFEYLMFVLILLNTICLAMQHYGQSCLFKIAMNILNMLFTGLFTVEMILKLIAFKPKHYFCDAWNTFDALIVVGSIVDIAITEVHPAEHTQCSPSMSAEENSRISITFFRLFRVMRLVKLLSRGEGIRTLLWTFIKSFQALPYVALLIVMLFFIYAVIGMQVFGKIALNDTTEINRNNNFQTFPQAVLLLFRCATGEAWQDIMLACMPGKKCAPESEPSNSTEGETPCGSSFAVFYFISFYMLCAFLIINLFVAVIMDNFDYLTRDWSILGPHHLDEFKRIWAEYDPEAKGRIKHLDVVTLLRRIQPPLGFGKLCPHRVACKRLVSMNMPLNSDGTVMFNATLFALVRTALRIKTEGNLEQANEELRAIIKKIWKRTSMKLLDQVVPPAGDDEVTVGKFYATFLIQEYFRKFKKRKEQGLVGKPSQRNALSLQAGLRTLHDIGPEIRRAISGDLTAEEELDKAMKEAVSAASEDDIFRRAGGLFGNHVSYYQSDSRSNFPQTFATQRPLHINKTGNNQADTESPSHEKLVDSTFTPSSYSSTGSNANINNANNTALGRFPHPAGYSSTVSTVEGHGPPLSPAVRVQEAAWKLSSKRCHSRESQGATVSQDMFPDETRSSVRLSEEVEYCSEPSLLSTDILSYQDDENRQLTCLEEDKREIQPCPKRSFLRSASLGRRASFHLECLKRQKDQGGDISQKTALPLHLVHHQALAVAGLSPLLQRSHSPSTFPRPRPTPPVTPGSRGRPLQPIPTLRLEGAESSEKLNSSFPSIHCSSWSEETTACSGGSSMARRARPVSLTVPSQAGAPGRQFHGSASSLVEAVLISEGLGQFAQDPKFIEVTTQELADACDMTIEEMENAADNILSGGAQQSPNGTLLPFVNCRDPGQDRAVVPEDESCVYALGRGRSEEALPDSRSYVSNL
# T1 sequence (P54290 25-944 partner limits assumed): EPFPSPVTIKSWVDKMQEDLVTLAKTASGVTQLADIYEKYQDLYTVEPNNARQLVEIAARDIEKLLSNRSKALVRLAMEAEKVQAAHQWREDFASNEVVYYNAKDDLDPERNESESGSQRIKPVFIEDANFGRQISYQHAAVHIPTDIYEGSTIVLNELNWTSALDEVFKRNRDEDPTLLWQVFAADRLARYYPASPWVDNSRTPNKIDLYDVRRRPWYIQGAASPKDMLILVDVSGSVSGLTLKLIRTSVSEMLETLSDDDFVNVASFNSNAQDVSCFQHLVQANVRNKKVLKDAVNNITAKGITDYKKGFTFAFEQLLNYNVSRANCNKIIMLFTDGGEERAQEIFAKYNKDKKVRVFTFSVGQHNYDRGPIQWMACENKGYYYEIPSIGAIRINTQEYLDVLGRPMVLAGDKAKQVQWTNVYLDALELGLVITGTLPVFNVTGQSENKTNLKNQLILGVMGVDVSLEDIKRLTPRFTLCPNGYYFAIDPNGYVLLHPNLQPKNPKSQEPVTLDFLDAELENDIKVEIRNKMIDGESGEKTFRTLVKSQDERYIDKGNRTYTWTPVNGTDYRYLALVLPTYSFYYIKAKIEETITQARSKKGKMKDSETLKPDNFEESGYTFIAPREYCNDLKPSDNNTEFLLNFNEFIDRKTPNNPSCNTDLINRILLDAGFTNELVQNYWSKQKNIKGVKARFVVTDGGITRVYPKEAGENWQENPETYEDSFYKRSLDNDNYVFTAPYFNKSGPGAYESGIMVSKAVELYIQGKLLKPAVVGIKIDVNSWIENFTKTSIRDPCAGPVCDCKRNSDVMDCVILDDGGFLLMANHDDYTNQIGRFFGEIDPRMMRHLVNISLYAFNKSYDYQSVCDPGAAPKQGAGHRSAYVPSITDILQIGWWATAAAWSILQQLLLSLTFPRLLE
# T1 sequence (P54290 945-1091 partner limits assumed): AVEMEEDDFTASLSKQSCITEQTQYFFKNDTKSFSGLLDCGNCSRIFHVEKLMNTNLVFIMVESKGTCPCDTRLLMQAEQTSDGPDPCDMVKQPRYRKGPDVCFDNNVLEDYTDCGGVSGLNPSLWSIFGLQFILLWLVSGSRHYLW
# T1 sequence (P54287 whole entry partner): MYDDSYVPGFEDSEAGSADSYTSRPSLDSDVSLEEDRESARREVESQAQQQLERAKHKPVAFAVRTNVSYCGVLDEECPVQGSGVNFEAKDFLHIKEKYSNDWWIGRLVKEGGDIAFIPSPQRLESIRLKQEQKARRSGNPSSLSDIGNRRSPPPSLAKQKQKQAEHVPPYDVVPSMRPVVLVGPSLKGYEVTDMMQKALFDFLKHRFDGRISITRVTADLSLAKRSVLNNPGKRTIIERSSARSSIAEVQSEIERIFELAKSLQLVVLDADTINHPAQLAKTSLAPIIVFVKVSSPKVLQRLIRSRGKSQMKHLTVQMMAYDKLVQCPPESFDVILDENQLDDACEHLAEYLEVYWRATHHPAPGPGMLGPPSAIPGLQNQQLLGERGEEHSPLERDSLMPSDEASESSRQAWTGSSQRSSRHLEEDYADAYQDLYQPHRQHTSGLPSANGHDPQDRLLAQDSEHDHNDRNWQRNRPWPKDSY
compound,measurement,setting,value
CC(C)Cn1c(=O)n(C)c(=O)c2[nH]cnc21 [IBMX],effect on calcium channel current increased by FMOC-PHF,L-type Ca2+ channel,reversal
Lysophosphatidyl inositol,effect on norepinephrine induced tension development,rat tail artery,potentiations of norepinephrine induced tension
same,increase in 86Rb uptake,"Na+ K+ ATPase; 600 micromolar, p<0.05",31%
same,hypertensive response (blood pressure in normotensive rats),SD rats,"delayed, sustained increase in blood pressure"
Lysophosphatidyl serine,increase in 86Rb uptake,"Na+ K+ ATPase; 30 micromolar, p<0.01",46%
same,effect on phosphodiesterase (PDE) activity,[1],stimulated PDE activity
same,hypertensive response (blood pressure in normotensive rats),SD rats,delayed sustained increase in blood pressure
lysophosphatidyl choline [LPC],effect on intracellular calcium ([Ca2+]i increment induced by KCl),[2],significantly augments the increase in intracellular calcium induced by KCl
